Experiments:
[1] = target: Hepatocyte growth factor receptor (Homo sapiens, UniProt P08581); assay: Inhibition of c-MET (unknown origin) using FAM-labeled peptide as substrate incubated for 10 mins followed by substrate addition by HTRF assay
[2] = system: MCF7; assay: cells; settings: Homo sapiens, MCF7, 72 h
[3] = system: A549; assay: cells; settings: Homo sapiens, A549, 72 h
Description: Antiproliferative activity against human A549 cells after 72 hrs by MTT assay

[4] = system: HepG2; assay: cells; settings: Homo sapiens, HepG2, 72 h
[5] = target: ALK tyrosine kinase receptor (Homo sapiens, UniProt Q9UM73); assay: Inhibition of ALK (unknown origin) using FAM-labeled peptide as substrate incubated for 10 mins followed by substrate addition by HTRF assay
[6] = target: Epidermal growth factor receptor (Homo sapiens, UniProt P00533); assay: Inhibition of EGFR (unknown origin) using FAM-labeled peptide as substrate incubated for 10 mins followed by substrate addition by HTRF assay
[7] = target: Platelet-derived growth factor receptor beta (Homo sapiens, UniProt P09619); assay: Inhibition of PDGFRbeta (unknown origin) using FAM-labeled peptide as substrate incubated for 10 mins followed by substrate addition by HTRF assay
[8] = target: Vascular endothelial growth factor receptor 3 (Homo sapiens, UniProt P35916); assay: Inhibition of FLT4 (unknown origin) using FAM-labeled peptide as substrate incubated for 10 mins followed by substrate addition by HTRF assay
[9] = target: Mast/stem cell growth factor receptor Kit (Homo sapiens, UniProt P10721); assay: Inhibition of c-KIT (unknown origin) using FAM-labeled peptide as substrate incubated for 10 mins followed by substrate addition by HTRF assay
[10] = target: Platelet-derived growth factor receptor alpha (Homo sapiens, UniProt P16234); assay: Inhibition of PDGFRalpha (unknown origin) using FAM-labeled peptide as substrate incubated for 10 mins followed by substrate addition by HTRF assay
[11] = target: T1, Receptor-type tyrosine-protein kinase FLT3 (Homo sapiens, UniProt P36888); assay: Inhibition of FLT3 (unknown origin) using FAM-labeled peptide as substrate incubated for 10 mins followed by substrate addition by HTRF assay
T1 sequence (P36888 whole entry): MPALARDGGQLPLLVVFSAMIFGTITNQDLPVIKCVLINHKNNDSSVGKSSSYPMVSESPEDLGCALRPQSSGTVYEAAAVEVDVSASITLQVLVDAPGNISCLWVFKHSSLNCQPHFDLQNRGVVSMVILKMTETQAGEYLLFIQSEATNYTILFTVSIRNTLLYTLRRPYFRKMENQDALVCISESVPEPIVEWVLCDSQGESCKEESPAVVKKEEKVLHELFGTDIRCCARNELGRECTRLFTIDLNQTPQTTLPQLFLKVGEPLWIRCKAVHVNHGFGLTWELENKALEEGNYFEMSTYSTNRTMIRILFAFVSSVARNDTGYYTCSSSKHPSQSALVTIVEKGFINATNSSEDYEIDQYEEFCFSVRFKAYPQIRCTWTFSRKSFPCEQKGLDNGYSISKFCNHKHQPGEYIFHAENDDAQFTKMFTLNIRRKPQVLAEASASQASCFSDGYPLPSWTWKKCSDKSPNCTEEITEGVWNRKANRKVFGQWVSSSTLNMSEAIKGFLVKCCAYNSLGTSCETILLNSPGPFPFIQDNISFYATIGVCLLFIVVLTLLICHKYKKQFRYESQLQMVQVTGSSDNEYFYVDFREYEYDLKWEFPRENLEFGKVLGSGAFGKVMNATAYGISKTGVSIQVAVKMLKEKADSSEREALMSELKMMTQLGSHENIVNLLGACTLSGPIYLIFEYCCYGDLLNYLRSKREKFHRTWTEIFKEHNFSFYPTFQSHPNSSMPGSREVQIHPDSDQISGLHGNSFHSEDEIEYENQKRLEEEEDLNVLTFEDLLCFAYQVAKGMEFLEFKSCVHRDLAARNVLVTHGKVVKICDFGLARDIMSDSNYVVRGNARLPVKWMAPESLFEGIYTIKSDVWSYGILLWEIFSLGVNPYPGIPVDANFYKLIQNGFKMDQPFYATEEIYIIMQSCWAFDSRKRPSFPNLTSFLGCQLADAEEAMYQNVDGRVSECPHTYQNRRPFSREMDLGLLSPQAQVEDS

[12] = system: HepG2; assay: Induction of apoptosis in human HepG2 cells assessed as necrotic cells at 0.5 uM after 48 hrs by Annexin V-FITC/PI staining based flow cytometry (reference value: 1.81%); format: functional
[13] = system: HepG2; assay: Induction of apoptosis in human HepG2 cells assessed as viable cells at 0.5 uM after 48 hrs by Annexin V-FITC/PI staining based flow cytometry (reference value: 91.69%); format: functional; settings: HepG2, 48 h, read-out: Activity
[14] = system: HepG2; assay: Induction of apoptosis in human HepG2 cells assessed as late apoptotic cells at 0.5 uM after 48 hrs by Annexin V-FITC/PI staining based flow cytometry (reference value: 3.53%); format: functional
[15] = system: HepG2; assay: Induction of apoptosis in human HepG2 cells assessed as early apoptotic cells at 0.5 uM after 48 hrs by Annexin V-FITC/PI staining based flow cytometry (reference value: 2.97%); format: functional

Hepatocyte growth factor receptor, sequence (P08581 whole entry): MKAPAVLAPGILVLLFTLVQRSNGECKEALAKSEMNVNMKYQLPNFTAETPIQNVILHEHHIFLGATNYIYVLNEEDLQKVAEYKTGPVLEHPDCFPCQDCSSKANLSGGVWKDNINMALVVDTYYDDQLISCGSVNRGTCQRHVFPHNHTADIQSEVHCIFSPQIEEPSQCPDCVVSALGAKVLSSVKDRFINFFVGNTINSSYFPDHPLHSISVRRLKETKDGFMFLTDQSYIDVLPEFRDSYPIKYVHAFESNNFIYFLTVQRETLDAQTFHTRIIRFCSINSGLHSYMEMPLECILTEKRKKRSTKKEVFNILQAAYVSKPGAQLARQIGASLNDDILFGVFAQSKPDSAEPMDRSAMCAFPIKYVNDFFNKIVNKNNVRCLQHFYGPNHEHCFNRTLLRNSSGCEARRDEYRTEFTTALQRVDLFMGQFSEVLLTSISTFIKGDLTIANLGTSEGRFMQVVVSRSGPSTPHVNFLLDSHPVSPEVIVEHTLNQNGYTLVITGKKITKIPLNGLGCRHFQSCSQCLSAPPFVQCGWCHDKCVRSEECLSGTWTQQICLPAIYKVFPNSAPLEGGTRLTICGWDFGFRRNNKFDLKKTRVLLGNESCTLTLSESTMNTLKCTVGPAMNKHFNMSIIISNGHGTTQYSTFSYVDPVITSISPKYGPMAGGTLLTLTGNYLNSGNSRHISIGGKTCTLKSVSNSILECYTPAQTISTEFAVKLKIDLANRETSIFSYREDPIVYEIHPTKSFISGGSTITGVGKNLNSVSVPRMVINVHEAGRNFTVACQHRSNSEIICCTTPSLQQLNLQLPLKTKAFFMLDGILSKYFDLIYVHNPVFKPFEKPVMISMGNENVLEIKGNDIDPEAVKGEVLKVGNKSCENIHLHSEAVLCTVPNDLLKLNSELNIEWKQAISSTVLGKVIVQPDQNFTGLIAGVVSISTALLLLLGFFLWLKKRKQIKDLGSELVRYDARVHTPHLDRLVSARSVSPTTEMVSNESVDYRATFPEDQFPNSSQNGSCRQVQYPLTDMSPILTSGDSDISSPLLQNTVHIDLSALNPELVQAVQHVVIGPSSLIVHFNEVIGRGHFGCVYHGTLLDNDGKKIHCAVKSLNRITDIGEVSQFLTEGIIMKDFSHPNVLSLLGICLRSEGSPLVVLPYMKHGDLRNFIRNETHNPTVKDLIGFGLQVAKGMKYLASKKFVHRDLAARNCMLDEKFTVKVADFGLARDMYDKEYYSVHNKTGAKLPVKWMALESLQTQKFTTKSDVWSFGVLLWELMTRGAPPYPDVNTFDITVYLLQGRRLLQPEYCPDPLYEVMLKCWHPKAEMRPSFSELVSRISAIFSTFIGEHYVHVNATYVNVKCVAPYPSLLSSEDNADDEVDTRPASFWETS
ALK tyrosine kinase receptor, sequence (Q9UM73 whole entry): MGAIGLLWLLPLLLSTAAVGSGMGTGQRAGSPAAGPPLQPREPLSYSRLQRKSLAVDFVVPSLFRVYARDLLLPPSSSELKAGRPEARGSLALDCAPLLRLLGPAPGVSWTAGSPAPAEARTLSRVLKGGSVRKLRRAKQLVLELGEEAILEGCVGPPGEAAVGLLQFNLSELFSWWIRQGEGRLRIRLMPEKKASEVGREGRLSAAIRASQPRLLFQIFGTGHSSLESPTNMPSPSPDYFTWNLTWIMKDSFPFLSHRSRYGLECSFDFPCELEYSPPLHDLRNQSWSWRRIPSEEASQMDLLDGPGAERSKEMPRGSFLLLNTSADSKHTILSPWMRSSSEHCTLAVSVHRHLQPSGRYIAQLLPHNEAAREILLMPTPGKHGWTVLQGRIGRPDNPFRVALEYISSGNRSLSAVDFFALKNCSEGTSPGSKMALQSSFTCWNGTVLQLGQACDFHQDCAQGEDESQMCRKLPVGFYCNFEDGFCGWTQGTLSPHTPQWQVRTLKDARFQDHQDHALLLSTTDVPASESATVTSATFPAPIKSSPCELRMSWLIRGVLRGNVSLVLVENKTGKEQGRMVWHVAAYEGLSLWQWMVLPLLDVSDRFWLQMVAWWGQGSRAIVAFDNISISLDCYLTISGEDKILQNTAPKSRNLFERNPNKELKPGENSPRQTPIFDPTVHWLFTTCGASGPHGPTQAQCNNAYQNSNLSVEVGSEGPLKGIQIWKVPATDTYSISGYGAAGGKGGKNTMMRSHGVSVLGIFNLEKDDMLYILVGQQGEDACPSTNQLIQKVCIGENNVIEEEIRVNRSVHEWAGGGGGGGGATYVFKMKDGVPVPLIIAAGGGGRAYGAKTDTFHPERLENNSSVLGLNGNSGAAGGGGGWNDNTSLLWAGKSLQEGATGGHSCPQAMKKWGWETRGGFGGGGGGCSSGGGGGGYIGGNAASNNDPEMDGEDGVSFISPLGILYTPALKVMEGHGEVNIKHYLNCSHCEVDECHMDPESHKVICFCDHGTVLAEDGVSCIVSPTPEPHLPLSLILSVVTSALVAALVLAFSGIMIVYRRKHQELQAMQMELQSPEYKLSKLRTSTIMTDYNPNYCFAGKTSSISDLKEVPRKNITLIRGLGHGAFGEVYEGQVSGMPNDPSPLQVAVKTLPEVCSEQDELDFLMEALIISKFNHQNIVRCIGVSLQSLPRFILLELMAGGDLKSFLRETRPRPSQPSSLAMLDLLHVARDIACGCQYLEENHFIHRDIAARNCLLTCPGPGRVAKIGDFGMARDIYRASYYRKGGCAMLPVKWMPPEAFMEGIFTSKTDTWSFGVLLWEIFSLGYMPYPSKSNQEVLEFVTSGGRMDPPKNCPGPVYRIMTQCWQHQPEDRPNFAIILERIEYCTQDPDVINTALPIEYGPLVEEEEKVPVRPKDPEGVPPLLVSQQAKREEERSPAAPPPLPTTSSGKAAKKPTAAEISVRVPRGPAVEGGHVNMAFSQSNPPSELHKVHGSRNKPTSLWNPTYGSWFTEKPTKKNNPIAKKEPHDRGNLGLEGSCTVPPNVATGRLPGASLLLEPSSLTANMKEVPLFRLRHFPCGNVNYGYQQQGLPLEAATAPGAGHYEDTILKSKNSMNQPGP
Epidermal growth factor receptor, sequence (P00533 whole entry): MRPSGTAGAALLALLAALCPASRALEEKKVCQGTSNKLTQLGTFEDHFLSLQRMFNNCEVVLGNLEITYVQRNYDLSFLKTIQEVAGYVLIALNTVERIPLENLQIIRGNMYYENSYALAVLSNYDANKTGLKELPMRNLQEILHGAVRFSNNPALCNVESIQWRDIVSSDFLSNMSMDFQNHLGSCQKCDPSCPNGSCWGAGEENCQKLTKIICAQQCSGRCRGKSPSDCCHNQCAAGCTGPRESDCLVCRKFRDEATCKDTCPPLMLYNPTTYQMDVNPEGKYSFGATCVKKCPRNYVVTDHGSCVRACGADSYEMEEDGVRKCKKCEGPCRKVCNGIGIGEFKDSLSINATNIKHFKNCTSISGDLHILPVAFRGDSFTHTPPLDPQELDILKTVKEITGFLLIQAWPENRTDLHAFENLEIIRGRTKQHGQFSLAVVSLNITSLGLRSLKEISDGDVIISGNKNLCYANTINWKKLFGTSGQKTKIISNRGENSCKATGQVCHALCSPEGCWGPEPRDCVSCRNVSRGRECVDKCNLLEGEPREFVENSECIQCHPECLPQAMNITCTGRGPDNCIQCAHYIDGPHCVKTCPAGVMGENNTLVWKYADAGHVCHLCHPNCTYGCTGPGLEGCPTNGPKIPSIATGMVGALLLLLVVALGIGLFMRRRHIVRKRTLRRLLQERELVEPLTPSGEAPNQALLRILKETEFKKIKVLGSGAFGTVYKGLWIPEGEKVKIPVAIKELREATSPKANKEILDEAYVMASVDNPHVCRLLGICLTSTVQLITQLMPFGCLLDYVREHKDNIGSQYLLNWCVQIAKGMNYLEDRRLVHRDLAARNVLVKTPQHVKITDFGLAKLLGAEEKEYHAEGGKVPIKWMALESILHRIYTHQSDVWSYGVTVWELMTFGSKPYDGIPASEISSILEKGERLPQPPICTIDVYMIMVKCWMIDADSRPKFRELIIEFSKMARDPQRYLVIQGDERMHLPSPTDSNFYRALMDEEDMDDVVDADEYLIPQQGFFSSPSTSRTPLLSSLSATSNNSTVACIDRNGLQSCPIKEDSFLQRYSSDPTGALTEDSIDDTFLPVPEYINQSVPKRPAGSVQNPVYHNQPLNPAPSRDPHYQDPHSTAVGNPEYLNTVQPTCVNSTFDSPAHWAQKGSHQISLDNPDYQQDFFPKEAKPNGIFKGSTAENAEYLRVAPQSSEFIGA

| IC50 [1] | IC50 [2] | IC50 [3] | IC50 [4] | Compound | further results |
| --- | --- | --- | --- | --- | --- |
| 7.97 nM | 1780 nM | 2410 nM | 760 nM | COc1cc2c(Oc3ccc(NC(=O)c4cc5cccnc5n(-c5ccc(F)cc5)c4=O)cc3F)ccnc2cc1OCCCN1CCOCC1 |  |
| 6.41 nM |  |  |  | COc1cc2c(Oc3ccc(NC(=O)c4cc5cccnc5n(-c5ccc(Br)cc5F)c4=O)cc3F)ccnc2cc1OCCCN1CCN(C)CC1 |  |
| 2.36 nM |  |  |  | COc1cc2c(Oc3ccc(NC(=O)c4cc5cccnc5n(-c5ccc(F)cc5)c4=O)cc3F)ccnc2cc1OCCCN1CCN(C)CC1 | IC50 [5]: 200 nM; IC50 [6]: > 10000 nM; IC50 [7]: 19.5 nM; IC50 [8]: 183 nM; IC50 [9]: 10.1 nM; IC50 [10]: 4.35 nM; IC50 [11]: 5.31 nM |
|  | 3210 nM | 4230 nM | > 40000 nM | COc1cc2c(Oc3ccc(NC(=O)c4cc5cccnc5n(-c5ccc(Cl)cc5)c4=O)cc3F)ccnc2cc1OCCCN1CCOCC1 |  |
| 2.86 nM |  |  |  | COc1cc2c(Oc3ccc(NC(=O)c4cc5cccnc5n(-c5ccc(F)cc5)c4=O)cc3F)ccnc2cc1OCCCN1CCCCC1 |  |
| 10.1 nM | 610 nM | 4170 nM | 1980 nM | COc1cc2c(Oc3ccc(NC(=O)c4cc5cccnc5n(-c5ccc(Br)cc5)c4=O)cc3F)ccnc2cc1OCCCN1CCOCC1 |  |
| 38.3 nM |  |  |  | COc1cc2c(Oc3ccc(NC(=O)c4cc5cccnc5n(-c5ccc(Br)cc5F)c4=O)cc3F)ccnc2cc1OCCCN1CCC(C)CC1 |  |
|  | 10500 nM | 19500 nM | 9160 nM | COc1ccc(-n2c(=O)c(C(=O)Nc3ccc(Oc4ccnc5cc(OCCCN6CCOCC6)c(OC)cc45)c(F)c3)cc3cccnc32)cc1 |  |
| 29.2 nM |  |  |  | COc1cc2c(Oc3ccc(NC(=O)c4cc5cccnc5n(-c5ccc(Br)cc5)c4=O)cc3F)ccnc2cc1OCCCN1CCCCC1 |  |
|  | 9750 nM | > 40000 nM | > 40000 nM | COc1cc2c(Oc3ccc(NC(=O)c4cc5cccnc5n(-c5ccc(Br)cc5F)c4=O)cc3F)ccnc2cc1OCCCN1CCOCC1 |  |
|  | 9410 nM | 4190 nM | 4170 nM | COc1cc2c(Oc3ccc(NC(=O)c4cc5cccnc5n(-c5ccc(C(F)(F)F)cc5Cl)c4=O)cc3F)ccnc2cc1OCCCN1CCOCC1 |  |
|  |  |  |  | COc1cc2c(Oc3ccc(NC(=O)C4(C(=O)Nc5ccc(F)cc5)CC4)cc3F)ccnc2cc1OCCCN1CCOCC1 [FORETINIB] | Activity [12]: 0.64%; viability at 0.5 µM [13]: 72.5%; Activity [14]: 8.36%; Activity [15]: 18.51% |
|  | > 40000 nM | 16800 nM | 11600 nM | COc1cc2c(Oc3ccc(NC(=O)c4cc5cccnc5n(-c5ccccc5)c4=O)cc3F)ccnc2cc1OCCCN1CCOCC1 |  |
| 31.8 nM |  |  |  | COc1cc2c(Oc3ccc(NC(=O)c4cc5cccnc5n(-c5ccc(F)cc5)c4=O)cc3F)ccnc2cc1OCCCN1CCC(C)CC1 |  |
|  | 1120 nM | > 40000 nM | 9680 nM | COc1cc2c(Oc3ccc(NC(=O)c4cc5cccnc5n(-c5ccc(F)c(Cl)c5)c4=O)cc3F)ccnc2cc1OCCCN1CCOCC1 |  |

— ChEMBL document CHEMBL4265922, “Synthesis and antiproliferative activity of 6,7-disubstituted-4-phenoxyquinoline derivatives bearing the 1,8-naphthyridin-2-one moiety” (Eur J Med Chem, 2018)
